System: SEM cells
Experiment: cell viability relative to DMSO control; higher = less cytotoxic
Settings: 48 h
Summary of the method: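 Viability, reported as a per-plate percentage of DMSO wells with cell-free wells as background, came from CellTiter-Glo One luminescence. Reading took place after 48 h at 37°C. Before that, NOMO1 or SEM (500 cells/well) or P12-Ichikawa (1000 cells/well) leukemia cells, adapted for at least four passages in each medium, were seeded in 1536-well plates (5 μl) and pin-dosed with library compounds in DMSO, 47 μM to 0.79 nM over 11 threefold points.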

[1] = HPLM + 10% dialyzed FBS, 0.000781 µM
[2] = HPLM + 10% dialyzed FBS, 0.00234 µM
[3] = HPLM + 10% dialyzed FBS, 0.00702 µM
[4] = HPLM + 10% dialyzed FBS, 0.0211 µM
[5] = HPLM + 10% dialyzed FBS, 0.0632 µM
[6] = HPLM + 10% dialyzed FBS, 0.19 µM
[7] = HPLM + 10% dialyzed FBS, 0.569 µM
[8] = HPLM + 10% dialyzed FBS, 1.71 µM
[9] = HPLM + 10% dialyzed FBS, 5.12 µM
[10] = HPLM + 10% dialyzed FBS, 15.4 µM
[11] = HPLM + 10% dialyzed FBS, 46.1 µM
[12] = RPMI 5 mM glucose + 10% FBS, 0.000781 µM
[13] = RPMI 5 mM glucose + 10% FBS, 0.00234 µM
[14] = RPMI 5 mM glucose + 10% FBS, 0.00702 µM
[15] = RPMI 5 mM glucose + 10% FBS, 0.0211 µM
[16] = RPMI 5 mM glucose + 10% FBS, 0.0632 µM
[17] = RPMI 5 mM glucose + 10% FBS, 0.19 µM
[18] = RPMI 5 mM glucose + 10% FBS, 0.569 µM
[19] = RPMI 5 mM glucose + 10% FBS, 1.71 µM
[20] = RPMI 5 mM glucose + 10% FBS, 5.12 µM
[21] = RPMI 5 mM glucose + 10% FBS, 15.4 µM
[22] = RPMI 5 mM glucose + 10% FBS, 46.1 µM
[23] = RPMI 5 mM glucose + 10% dialyzed FBS, 0.000781 µM
[24] = RPMI 5 mM glucose + 10% dialyzed FBS, 0.00234 µM
[25] = RPMI 5 mM glucose + 10% dialyzed FBS, 0.00702 µM
[26] = RPMI 5 mM glucose + 10% dialyzed FBS, 0.0211 µM
[27] = RPMI 5 mM glucose + 10% dialyzed FBS, 0.0632 µM
[28] = RPMI 5 mM glucose + 10% dialyzed FBS, 0.19 µM
[29] = RPMI 5 mM glucose + 10% dialyzed FBS, 0.569 µM
[30] = RPMI 5 mM glucose + 10% dialyzed FBS, 1.71 µM
[31] = RPMI 5 mM glucose + 10% dialyzed FBS, 5.12 µM
[32] = RPMI 5 mM glucose + 10% dialyzed FBS, 15.4 µM
[33] = RPMI 5 mM glucose + 10% dialyzed FBS, 46.1 µM

| Compound | cell viability [1] | cell viability [2] | cell viability [3] | cell viability [4] | cell viability [5] | cell viability [6] | cell viability [7] | cell viability [8] | cell viability [9] | cell viability [10] | cell viability [11] | cell viability [12] | cell viability [13] | cell viability [14] | cell viability [15] | cell viability [16] | cell viability [17] | cell viability [18] | cell viability [19] | cell viability [20] | cell viability [21] | cell viability [22] | cell viability [23] | cell viability [24] | cell viability [25] | cell viability [26] | cell viability [27] | cell viability [28] | cell viability [29] | cell viability [30] | cell viability [31] | cell viability [32] | cell viability [33] |
| --- | --- | --- | --- | --- | --- | --- | --- | --- | --- | --- | --- | --- | --- | --- | --- | --- | --- | --- | --- | --- | --- | --- | --- | --- | --- | --- | --- | --- | --- | --- | --- | --- | --- |
| O=C(/C=C/c1ccc(/C=C/C(=O)Nc2ccc(C3=NCCN3)cc2)cc1)Nc1ccc(C2=NCCN2)cc1 | 96.5% | 103% | 101% | 115% | 129% | 118% | 115% | 117% | 103% | 103% | 115% | 93.6% | 104% | 95.5% | 102% | 109% | 99.2% | 110% | 114% | 93.5% | 72.8% | 52.3% | 104% | 120% | 115% | 114% | 109% | 113% | 111% | 120% | 108% | 97.7% | 64.6% |
| O=C(O)CCCCCC(=O)NN=C1CCCC1 | 88.6% | 100% | 99.5% | 104% | 119% | 114% | 114% | 117% | 119% | 110% | 104% | 89.8% | 99.3% | 106% | 104% | 96.1% | 104% | 114% | 113% | 100% | 108% | 93.2% | 100% | 99.2% | 111% | 119% | 120% | 101% | 111% | 128% | 117% | 127% | 110% |
| C/C1=C2/[N]3[Co+]456([OH])<-[N]7=C1[C@@H](CCC(N)=O)C(C)(C)/C7=C/C1=[N]->4C(=C(/C)C4=[N]->5[C@@](C)([C@H]3[C@H](CC(N)=O)[C@@]2(C)CCC(=O)NC[C@@H](C)OP(=O)([O-])O[C@H]2[C@@H](O)[C@@H](n3c[n]->6c5cc(C)c(C)cc53)O[C@@H]2CO)[C@@](C)(CC(N)=O)[C@@H]4CCC(N)=O)/[C@@](C)(CC(N)=O)[C@@H]1CCC(N)=O | 93.9% | 90.7% | 94.6% | 98.2% | 98.3% | 94.2% | 94.6% | 92.8% | 94.5% | 73.8% | 60.1% | 112% | 116% | 104% | 82.5% | 113% | 95.9% | 99.3% | 97.3% | 77.1% | 91.6% | 79.9% | 96.4% | 96.6% | 109% | 100% | 110% | 95.6% | 101% | 101% | 103% | 80.4% | 71% |
| COc1ccc(F)c(F)c1C(=O)c1cnc(NC2CCN([S+](C)(=O)[O-])CC2)nc1N | 94.9% | 103% | 109% | 113% | 109% | 113% | 64.6% | 79% | 41.6% | 4.32% | 1.78% | 115% | 130% | 121% | 130% | 123% | 135% | 80.4% | 83.1% | 43.4% | 3.24% | 1.43% | 101% | 97.7% | 111% | 98.2% | 99.3% | 114% | 77.4% | 91.1% | 54.1% | 3.36% | 1.73% |
| C[C@H](NC(=O)Cc1cc(F)cc(F)c1)C(=O)N[C@H](C(=O)OC(C)(C)C)c1ccccc1 | 100% | 96.2% | 91.7% | 89.2% | 102% | 69.9% | 92.1% | 85.6% | 79.7% | 87.9% | 70.2% | 103% | 92.3% | 98.3% | 105% | 107% | 87.3% | 96.5% | 88.6% | 102% | 88.7% | 71.4% | 90.6% | 91.6% | 80.6% | 103% | 96.9% | 89.2% | 91.3% | 79.6% | 74.7% | 86.9% | 70.3% |
| C[S+](=O)([O-])Oc1ccc2c(NC(N)=O)c(C(=O)c3ccc(Cl)cc3Cl)oc2c1 | 98.3% | 103% | 107% | 109% | 109% | 104% | 110% | 117% | 129% | 120% | 120% | 93.7% | 95.9% | 106% | 109% | 117% | 105% | 106% | 114% | 103% | 122% | 112% | 82.9% | 91.6% | 102% | 94% | 97% | 103% | 105% | 92.7% | 98.2% | 92.5% | 105% |
| CN(CCOc1ccc(CC2SC(=O)NC2=O)cc1)c1ccccn1 (stereo unspecified) | 116% | 117% | 121% | 106% | 113% | 123% | 117% | 115% | 124% | 121% | 116% | 76.7% | 94.7% | 85.4% | 102% | 84.2% | 81.9% | 90.5% | 95.1% | 85.7% | 97.3% | 104% | 107% | 119% | 113% | 117% | 113% | 107% | 112% | 106% | 121% | 114% | 122% |
